How the values were obtained:
[1] = test system: Mouse; experiment: concentration in plasma after dosing; conditions: 3 h; dosed: 2-Hydroxy-4-methoxybenzophenone; 50 mg/kg; iv; Female; B6C3F1
[2] = test system: Mouse; experiment: concentration in plasma after dosing; conditions: 0.25 h; dosed: 2-Hydroxy-4-methoxybenzophenone; 500 mg/kg; oral; Female; B6C3F1
[3] = test system: Rat; experiment: concentration in plasma after dosing; conditions: dosed: 2-Hydroxy-4-methoxybenzophenone, 250 mg/kg, oral, Female, F344
[4] = test system: Rat; experiment: concentration in plasma after dosing; conditions: 2.5 min; dosed: 2-Hydroxy-4-methoxybenzophenone; 500 mg/kg; oral; Female; F344
[5] = test system: Mouse; experiment: concentration in plasma after dosing; conditions: 2 h; dosed: 2-Hydroxy-4-methoxybenzophenone; 500 mg/kg; oral; Female; B6C3F1
[6] = test system: Mouse; experiment: concentration in plasma after dosing; conditions: 10 min; dosed: 2-Hydroxy-4-methoxybenzophenone; 250 mg/kg; oral; Female; B6C3F1
[7] = test system: Mouse; experiment: concentration in plasma after dosing; conditions: 10 min; dosed: 2-Hydroxy-4-methoxybenzophenone; 50 mg/kg; iv; Male; B6C3F1
[8] = test system: Mouse; experiment: concentration in plasma after dosing; conditions: 3 h; dosed: 2-Hydroxy-4-methoxybenzophenone; 50 mg/kg; iv; Male; B6C3F1
[9] = test system: Mouse; experiment: concentration in plasma after dosing; conditions: 2 h; dosed: 2-Hydroxy-4-methoxybenzophenone; 250 mg/kg; oral; Female; B6C3F1
[10] = test system: Mouse; experiment: concentration in plasma after dosing; conditions: 2 h; dosed: 2-Hydroxy-4-methoxybenzophenone; 250 mg/kg; oral; Female; B6C3F1; remark: listed apart in the source
[11] = test system: Mouse; experiment: concentration in plasma after dosing; conditions: dosed: 2-Hydroxy-4-methoxybenzophenone, 100 mg/kg, oral, Female, B6C3F1
[12] = test system: Rat; experiment: concentration in plasma after dosing; conditions: dosed: 2-Hydroxy-4-methoxybenzophenone, 8 mg/kg, iv, Female, F344
[13] = test system: Rat; experiment: concentration in plasma after dosing; conditions: dosed: Nitrite, 80 mg/kg, oral, Female, F344
[14] = test system: Rat; experiment: concentration in plasma after dosing; conditions: 0.5 h; dosed: Nitrite; 80 mg/kg; oral; Female; F344
[15] = test system: Rat; experiment: concentration in plasma after dosing; conditions: 0.5 h; dosed: Nitrite; 20 mg/kg; iv; Male; F344
[16] = test system: Rat; experiment: concentration in plasma after dosing; conditions: dosed: Nitrite, 80 mg/kg, oral, Female, F344; remark: listed apart in the source
[17] = test system: Rat; experiment: concentration in liver after dosing; conditions: 1 h; dosed: Fluorotelomer alcohol 8+2; 80 mg/kg; oral; Female; Harlan Sprague Dawley
[18] = test system: Rat; experiment: concentration in kidney after dosing; conditions: 12 h; dosed: Fluorotelomer alcohol 8+2; 80 mg/kg; oral; Female; Harlan Sprague Dawley
[19] = test system: Rat; experiment: concentration in kidney after dosing; conditions: 1 h; dosed: Fluorotelomer alcohol 8+2; 24 mg/kg; oral; Male; Harlan Sprague Dawley
[20] = test system: Rat; experiment: concentration in plasma after dosing; conditions: dosed: 678-39-7, 40 mg/kg, iv, Male, F344
[21] = test system: Rat; experiment: concentration in kidney after dosing; conditions: 12 h; dosed: Perfluorooctanoic acid; 12 mg/kg; oral; Male; Harlan Sprague Dawley
[22] = test system: Rat; experiment: concentration in kidney after dosing; conditions: 3 h; dosed: Perfluorooctanoic acid; 80 mg/kg; oral; Female; Harlan Sprague Dawley
[23] = test system: Rat; experiment: concentration in plasma after dosing; conditions: dosed: 678-39-7, 40 mg/kg, iv, Male, F344; remark: listed apart in the source
[24] = test system: Rat; experiment: concentration in liver after dosing; conditions: 6 h; dosed: Perfluorooctanoic acid; 80 mg/kg; oral; Female; Harlan Sprague Dawley
[25] = test system: Rat; experiment: concentration in plasma after dosing; conditions: dosed: Fluorotelomer alcohol 8+2, 12 mg/kg, oral, Male, Harlan Sprague Dawley
[26] = test system: Rat; experiment: concentration in liver after dosing; conditions: 12 h; dosed: Perfluorooctanoic acid; 12 mg/kg; oral; Male; Harlan Sprague Dawley
[27] = test system: Rat; experiment: concentration in liver after dosing; conditions: 192 h; dosed: Perfluorooctanoic acid; 12 mg/kg; oral; Male; Harlan Sprague Dawley
[28] = test system: Rat; experiment: concentration in kidney after dosing; conditions: 12 h; dosed: Perfluorooctanoic acid; 80 mg/kg; oral; Female; Harlan Sprague Dawley
[29] = test system: Rat; experiment: concentration in kidney after dosing; conditions: 12 h; dosed: Fluorotelomer alcohol 8+2; 24 mg/kg; oral; Male; Harlan Sprague Dawley
[30] = test system: Rat; experiment: concentration in plasma after dosing; conditions: dosed: Fluorotelomer alcohol 8+2, 12 mg/kg, oral, Male, Harlan Sprague Dawley; remark: listed apart in the source
[31] = test system: Rat; experiment: concentration in kidney after dosing; conditions: 6 h; dosed: Perfluorooctanoic acid; 80 mg/kg; oral; Female; Harlan Sprague Dawley
[32] = test system: Rat; experiment: concentration in plasma after dosing; conditions: dosed: 678-39-7, 40 mg/kg, iv, Male, F344; remark: listed apart in the source
[33] = test system: Rat; experiment: concentration in plasma after dosing; conditions: 1 h; dosed: Potassium Perfluorobutane Sulfonate; 4 mg/kg; iv; Male; F344
[34] = test system: Rat; experiment: concentration in brain after dosing; conditions: 0.5 h; dosed: Potassium Perfluorobutane Sulfonate; 20 mg/kg; oral; Male; Harlan Sprague Dawley
[35] = test system: Rat; experiment: concentration in liver after dosing; conditions: 1 h; dosed: Potassium Perfluorobutane Sulfonate; 20 mg/kg; oral; Female; Harlan Sprague Dawley
[36] = test system: Rat; experiment: concentration in kidney after dosing; conditions: 3 h; dosed: Potassium Perfluorobutane Sulfonate; 20 mg/kg; oral; Female; Harlan Sprague Dawley
[37] = test system: rat; conditions: dosed: benzo[a]pyrene, 1 mg/kg, iv, male, Sprague Dawley

COc1ccc(C(=O)c2ccccc2)c(O)c1 [2-Hydroxy-4-methoxybenzophenone]
Conditions	concentration in plasma [ng/mL]
[1]	134
[2]	1230
[4]	12.8
[5]	4310
[6]	625
[7]	14000
[8]	175
[9]	55.6
[10]	832

concentration in plasma [ng/mL]
Conditions	0.25 h	2 h	2.5 min	3 h	4 h	10 min
[3]	56.9	–	–	–	26.2	–
[11]	81	4.58	15.3	5.05	–	37.3
[12]	–	78.6	–	–	–	3030

O=N[O-] [Nitrite]
concentration in plasma [ng/mL]
Conditions	0.5 h	1 h	2 h	4 h
[13]	–	8100	6800	–
[16]	20500	–	–	4900

Conditions	concentration in plasma [ng/mL]
[14]	30200
[15]	3700

O=C(O)C(F)(F)C(F)(F)C(F)(F)C(F)(F)C(F)(F)C(F)(F)C(F)(F)F [Perfluorooctanoic acid]
Conditions	concentration in kidney [ng/g]	concentration in liver [ng/g]
[17]	–	727
[18]	626	–
[19]	175	–
[21]	26900	–
[22]	321000	–
[24]	–	130000
[26]	–	56700
[27]	–	46900
[28]	67800	–
[29]	581	–
[31]	175000	–

Conditions	concentration in plasma [ng/mL]
[20], 0.25 h	264000
[20], 6 h	108000
[23], 0.25 h	671
[23], 6 h	1310
[23], 24 h	819
[25], 0.25 h	27.2
[25], 6 h	635
[30], 0.5 h	79.5
[30], 9 h	793
[32], 0.5 h	1400
[32], 9 h	716

O=S(=O)([O-])C(F)(F)C(F)(F)C(F)(F)C(F)(F)F.[K+] [Potassium Perfluorobutane Sulfonate]
Conditions	concentration in brain [ng/g]	concentration in kidney [ng/g]	concentration in liver [ng/g]	concentration in plasma [ng/mL]
[33]	–	–	–	17700
[34]	518	–	–	–
[35]	–	–	27800	–
[36]	–	10500	–	–

c1ccc2c(c1)cc1ccc3cccc4ccc2c1c34 [benzo[a]pyrene]
[37]
Conditions	amount in bile after dosing [ng]
1.003 h	7.16
3.009 h	20.1
5.994 h	22.9
24 h	26.4
